We go through two molecules from US20210363170A1, “4'-THIO-NUCLEOTIDE AND -NUCLEOSIDE PRODRUGS FOR THE TREATMENT OF CANCER” (Southern Research Institute, priority 2018, published 2021).

Like-named read-outs stand apart in the source and are kept apart here.

Holding throughout (format): cell-based
The test system of test [1] is HCT-116 cells. Nature of the test: Cytidine deaminase (CDA) activity: HCT-116 cell viability with or without the CDA inhibitor tetrahydrouridine. The following applies: for IC50: HCT-116 cells, 72 hours. As to the method:
[…] cells/well were plated in a 96 well plate in duplicate. Tetrahydrouridine (THU), a Cytidine Deaminase inhibitor was dosed at 1:5 10-point serial dilution, with a top dose of 100 μM, as a control. […] Cells were cultured in the presence of compound for 72 hours and then assayed by cell titer glow for viability.

For test [2], the system named is CEM cells. Nature of the test: Deoxycytidine kinase (dCK) activity: CEM cell viability with or without 2'-deoxycytidine. The conditions noted are these: for IC50: CEM cells, 72 hours. As to the method:
7.5×10^3 cells/well were plated in a 96 well plate in duplicate. […] Cells were cultured in the presence of compound for 72 hours. CellTiter Glo (G9241, Promega) was added to the media of each well and measured by a plate reader (Synergy 4, Biotek). The results were analyzed by GraphPad Prism 7 (GraphPad).

Test [3] deals with KG-1a cells. Nature of the test: Cell viability assay (CellTiter Glo, 72 hours) in KG-1a cells. The following applies: read-out: Cell Line IC50 (μM) KG-1a. The procedure: (§1) KG1a (CCL-246.1, ATCC) and CCRF-CEM (CCL-199, ATCC) cells were grown in RPMI-1640 media containing 10% FBS in T-75 flasks to a density of 1×10^6 cells per mL. Exponentially gown cells were used for the assay. Day 1: 7.5×10^3 cells were seeded in each well of 96 well plate. Day 2: Cells were treated with serial dilutions of each compound (starting 20 uM) or with DMSO as control for 72 hours. Day 5: CellTiter Glo (G9241, Promega) was added to the media of each well and measured by plate reader (Synergy 4, Biotek). Data analysis: Using GraphPad Prism 7 (GraphPad).

Test [4] has as its system CCRF-CEM cells. Nature of the test: Cell viability assay (CellTiter Glo, 72 hours) in CEM cells. The conditions noted are these: read-out: Cell Line IC50 (μM) CEM. As to the method: as §1
A general note: Cellular ATP, detected with luciferase, serves as a proxy for viable cell number.

Test [5] has as its system DNMT-1. Nature of the test: Western blot analysis of DNMT-1 in CEM cells. The conditions noted are these: DNMT-1 depletion in CEM cells, 96 hours. As to the method: Cells were treated with serial dilutions of each compound (starting 100 uM for HCT-116 and NCI-H23 cells, and 20 uM for KG-1a and CCRF-CEM cells) or with DMSO as control for 96 hours. Cell lysates were collected and proteins were separated with a SDS-PAGE gel, transferred to a nitrocellulose membrane, blocked in 5% non-fat milk in TBS-T, and probed with anti DNMT-1 (1:7000) rabbit polyclonal antibodies (cat #ab19905, Abcam) in 5% non-fat milk in TBS-T overnight. Membranes were washed three times with TBS-T. The anti-rabbit IgG (7074p2, Cell Signaling) secondary antibody was added at a concentration of 1:5000 in 5% non-fat milk in TBS-T for two hours in room temperature. Membranes were then washed three times with TBS-T, 5 minutes each time. Membranes were then incubated with SuperSignal West Pico Chemiluminescent Substrate (#34080 Thermo) and exposed onto film. Membranes were stripped with stripping buffer (#21059, Thermo) and re-probed with mouse anti tubulin 1:10,000 (T9026, Sigma) and anti-mouse IgG 1:5,000 (70′76p2, Cell Signaling).
On the technique in general: In western blotting, separated proteins are transferred to a membrane and probed.

Test [6] concerns CEM cells. Description: Nucleoside transporter (hENT-1) activity: CEM cell viability with or without the hENT-1 inhibitor dipyridamole. The following applies: for IC50: CEM cells, 72 hours. The procedure:
7.5×10^3 cells/well were plated in a 96 well plate in duplicate. Either compound 2 and Aza-T-dCyd were dosed at a 1:5 10-point serial dilution with a top dose of 5 μM in the presence of 5 μM Dipyridamole (DPD, Sigma Cat #: D9766 CAS 58-32-2), a hENT-1 inhibitor. Cells were cultured in the presence of compound for 72 hours. CellTiter Glo (G9241, Promega) was added to the media of each well and measured by a plate reader (Synergy 4, Biotek). The results were analyzed by GraphPad Prism 7 (GraphPad).

Usually IC50 stands for the concentration needed to halve the response being measured. With “2-ethylbutyl ((S)-(((2R,3S,5R)-5-(4-amino-2-oxo-1,3,5-triazin-1(2H)-yl)-3-hydroxytetrahydrothiophen-2-yl)methoxy)(phenoxy)phosphoryl)-L-alaninate [Compound 3]”, the IC50 worked out at 12 µM in test [1] (with 20 μM tetrahydrouridine (CDA inhibitor), read-out: HCT-116 IC50 (μM) With THU (20 μM)); 8 µM in test [1] (without tetrahydrouridine, read-out: HCT-116 IC50 (μM) Without THU); 6.5 µM in test [2] (with 20 μM 2'-deoxycytidine (dCK inhibitor), read-out: CEM IC50 (μM) With dCyd (20 μM)); 0.3 µM in test [2] (without 2'-deoxycytidine, read-out: CEM IC50 (μM) Without dCyd); 1.5 µM in test [3]; 0.16 µM in test [4]. Further, the concentration for half-maximal inhibition (IC50) in test [5] was found to be 620 nM; in test [6] (with 5 μM dipyridamole (hENT-1 inhibitor), read-out: CEM IC50 (μM) With DPD (5 μM)), 3.1 µM; in test [6] (without dipyridamole, read-out: CEM IC50 (μM) Without DPD), 0.35 µM. Moreover, the “overcoming cytidine deaminase compared to parent drug” value in test [1] (conclusion in words from Table 4) is given as “did overcome CAD”. For the same molecule, the “reliance on dCK activation compared to parent drug” value in test [2] (conclusion in words from Table 5) is “does not rely on dCK activation”. Also, the “reliance on hENT-1 to enter the cancer cells” value in test [6] (conclusion in words from Table 3) is “does not significantly rely on hENT-1”.
Regarding `Nc1ncn([C@H]2C[C@H](O)[C@@H](CO)S2)c(=O)n1` [Aza-T-dCyd, 5-aza-4′-Thio-2′-deoxycytidine, reference compound], the concentration for half-maximal inhibition (IC50) in test [1] (Homo sapiens, with 20 μM tetrahydrouridine (CDA inhibitor), read-out: HCT-116 IC50 (μM) With THU (20 μM)) came out at 0.7 µM; in test [1] (Homo sapiens, without tetrahydrouridine, read-out: HCT-116 IC50 (μM) Without THU), 7 µM; in test [2] (Homo sapiens, CCRF-CEM, with 20 μM 2'-deoxycytidine (dCK inhibitor), read-out: CEM IC50 (μM) With dCyd (20 μM)) it was 19 µM; in test [2] (Homo sapiens, CCRF-CEM, without 2'-deoxycytidine, read-out: CEM IC50 (μM) Without dCyd), 0.03 µM; in test [3] (Homo sapiens), 0.03 µM; in test [4] (Homo sapiens, CCRF-CEM) it was 0.03 µM. Further, the IC50 in test [5] is 380 nM; in test [6] (Homo sapiens, CCRF-CEM, with 5 μM dipyridamole (hENT-1 inhibitor), read-out: CEM IC50 (μM) With DPD (5 μM)), over 3 µM; in test [6] (Homo sapiens, CCRF-CEM, without dipyridamole, read-out: CEM IC50 (μM) Without DPD), 0.03 µM.
